# Experimental data taken from DBAASP.
# Key:
# Experiment in all cases: ≥ marks a high value that may be exact or a test limit, other limits are often not marked, values filed in µg/mL are converted to µM
# [1] = tested on: Staphylococcus aureus ATCC 25923
# [2] = tested on: Staphylococcus aureus 936
# [3] = tested on: Acinetobacter baumannii ATCC 19606
# [4] = tested on: Bacillus subtilis ATCC 23857
# Acinetobacter baumannii = tested on: Acinetobacter baumannii
# [5] = tested on: Staphylococcus aureus 725
# [6] = tested on: Enterococcus faecalis ATCC 29212
# Escherichia coli 850 = tested on: Escherichia coli 850
# [7] = tested on: Escherichia coli ATCC 25922
# [8] = tested on: Klebsiella pneumoniae ATCC 700603
# [9] = tested on: Pseudomonas aeruginosa 2760
# [10] = tested on: Pseudomonas aeruginosa ATCC 27853
# Escherichia coli 780 = tested on: Escherichia coli 780
# [11] = tested on: Staphylococcus epidermidis DSM 3269
# Listeria grayi DSM 20601 = tested on: Listeria grayi DSM 20601
# [12] = tested on: Enterococcus faecalis 981
# [13] = tested on: Candida albicans ATCC 10231
# [14] = tested on: Enterococcus faecium 091299
# [15] = tested on: Psychrobacter faecalis X29
# [16] = tested on: Klebsiella pneumoniae 08040724
# [17] = tested on: Nocardia asteroides 201118
# [18] = tested on: Enterobacter cloacae CGMCC 1.57
# Candida glabrata 090902 = tested on: Candida glabrata 090902
# [19] = tested on: Staphylococcus aureus ATCC 29313
# [20] = tested on: Salmonella enterica subsp. enterica serovar Typhimurium ATCC 14028
# [21] = tested on: Acinetobacter baumannii AB2
# Pseudomonas aeruginosa 1 = tested on: Pseudomonas aeruginosa 1
# Pseudomonas aeruginosa 5 = tested on: Pseudomonas aeruginosa 5
# [22] = tested on: Acinetobacter baumannii AB1
# [23] = tested on: Acinetobacter baumannii AB3
# [24] = tested on: Escherichia coli K12 MG1655
# [25] = tested on: Staphylococcus aureus 68 HER 1049
# [26] = tested on: Latilactobacillus sakei NCDO 2714
# [27] = tested on: Lactiplantibacillus plantarum 965
# [28] = tested on: Latilactobacillus sakei 706
# [29] = tested on: Lacticaseibacillus casei NCDO 2713
# [30] = tested on: Lacticaseibacillus casei subsp. casei NCDO 161
# [31] = tested on: Weissella viridescens NCDO 1655
# [32] = tested on: Carnobacterium maltaromaticum UI49
# [33] = tested on: Pediococcus pentosaceus NCDO 990
# [34] = tested on: Pediococcus pentosaceus Pac1.0
# [35] = tested on: Lactiplantibacillus plantarum UI50
smiles,measurement,setting,value
CC[C@H](C)[C@H](NC(=O)[C@H](CCCCN)NC(=O)[C@H](CCCCN)NC(=O)[C@H](C)NC(=O)[C@H](CC(C)C)NC(=O)[C@H](C)NC(=O)[C@H](C)NC(=O)[C@H](CC(C)C)NC(=O)[C@@H]1CCCN1C(=O)[C@H](CCCCN)NC(=O)[C@H](CC(C)C)NC(=O)[C@H](CC(N)=O)NC(=O)[C@@H](NC(=O)[C@H](CCCCN)NC(=O)CNC(=O)[C@H](CC(C)C)NC(=O)[C@H](CC(C)C)NC(=O)[C@H](Cc1ccc(O)cc1)NC(=O)CNC(=O)[C@H](C)N)[C@@H](C)CC)C(=O)N[C@@H](CC(C)C)C(N)=O [AGYLLGKINLKPLAALAKKIL],MIC,[1],58 µM
same,MIC,[2],≥ 58 µM
same,MIC,[3],3.62 µM
same,MIC,[4],3.62 µM
same,MIC,Acinetobacter baumannii,3.62 µM
same,MIC,[5],29 µM
same,MIC,[6],> 58 µM
same,MIC,Escherichia coli 850,7.24 µM
same,MIC,[7],7.24 µM
same,MIC,[8],29 µM
same,MIC,[9],29 µM
same,MIC,[10],58 µM
same,MIC,Escherichia coli 780,14.5 µM
CC[C@H](C)[C@H](NC(=O)CNC(=O)[C@H](CO)NC(=O)[C@@H](N)CS)C(=O)N[C@H](C(=O)N[C@@H](CCCCN)C(=O)N[C@@H](CCC(N)=O)C(=O)N[C@H](C(=O)N[C@@H](CS)C(=O)N[C@H](C(=O)N[C@@H](CS)C(=O)N[C@@H](Cc1ccc(O)cc1)C(=O)N[C@@H](CCCN=C(N)N)C(=O)N[C@@H](CCCCN)C(=O)O)[C@@H](C)O)[C@@H](C)O)[C@@H](C)CC [CSGIIKQTCTCYRK],MIC,[11],30 µM
same,MIC,Listeria grayi DSM 20601,30 µM
CC[C@H](C)[C@H](NC(=O)CNC(=O)[C@@H](NC(=O)[C@H](C)NC(=O)[C@H](C)NC(=O)[C@H](CCCCN)NC(=O)[C@@H](NC(=O)[C@H](CC(C)C)NC(=O)CNC(=O)[C@@H]1CCCN1C(=O)[C@H](CC(C)C)NC(=O)[C@@H](N)Cc1ccccc1)[C@@H](C)CC)C(C)C)C(=O)NCC(=O)N[C@@H](CO)C(=O)N[C@H](C(=O)N[C@H](C(=O)N[C@@H](Cc1ccccc1)C(=O)N[C@H]1CSSC[C@@H](C(=O)O)NC(=O)[C@H](CCCCN)NC(=O)[C@H](CCCN=C(N)N)NC(=O)[C@H](CO)NC(=O)[C@H]([C@@H](C)CC)NC(=O)[C@H](CCCCN)NC1=O)[C@@H](C)CC)[C@@H](C)O [FLPGLIKAAVGIGSTIFCKISRKC],MIC,[1],3.1 µM
same,MIC,[12],3.1 µM
same,MIC,[13],50 µM
same,MIC,[14],≥ 100 µM
same,MIC,[15],25 µM
same,MIC,[7],100 µM
same,MIC,[16],≥ 100 µM
same,MIC,[17],3.1 µM
same,MIC,[18],≥ 100 µM
same,MIC,Candida glabrata 090902,3.1 µM
CC[C@H](C)[C@H](NC(=O)[C@H](CCCCN)NC(=O)CNC(=O)[C@H](CCSC)NC(=O)[C@H](C)NC(=O)[C@H](Cc1cnc[nH]1)NC(=O)[C@H](C)NC(=O)[C@@H](NC(=O)[C@H](CC(C)C)NC(=O)[C@H](CCC(N)=O)NC(=O)[C@H](CCCCN)NC(=O)CNC(=O)[C@H](C)NC(=O)[C@H](CC(=O)O)NC(=O)[C@H](CCCCN)NC(=O)[C@@H](NC(=O)[C@@H](NC(=O)[C@H](CC(=O)O)NC(=O)[C@H](Cc1ccccc1)NC(=O)[C@@H](NC(=O)CN)C(C)C)[C@@H](C)CC)[C@@H](C)CC)C(C)C)C(=O)N[C@@H](C)C(=O)N[C@@H](CCC(=O)O)C(=O)N[C@@H](CCCCN)C(=O)N[C@H](C(N)=O)C(C)C [GVFDIIKDAGKQLVAHAMGKIAEKV],MIC,[19],≥ 303 µM
same,MIC,[7],303 µM
same,MIC,[20],> 303 µM
same,MIC,[8],> 303 µM
CC[C@H](C)[C@H](NC(=O)[C@H](CCCCN)NC(=O)[C@H](CCCCN)NC(=O)[C@H](Cc1ccc(O)cc1)NC(=O)[C@H](CCC(=O)O)NC(=O)[C@H](CCCN=C(N)N)NC(=O)[C@H](C)NC(=O)[C@@H](N)CC(C)C)C(=O)N[C@H](C(=O)N[C@@H](CCC(=O)O)C(=O)N[C@@H](CCCCN)C(=O)N[C@@H](CC(C)C)C(=O)N[C@@H](CCCCN)C(=O)N[C@@H](CCCN=C(N)N)C(=O)N[C@@H](Cc1c[nH]c2ccccc12)C(=O)N[C@@H](CC(C)C)C(=O)N[C@@H](CCCN=C(N)N)C(=O)N[C@@H](CCC(N)=O)C(=O)N[C@H](C(=O)N[C@@H](CC(C)C)C(=O)N[C@@H](CCCN=C(N)N)C(=O)N[C@H](C(=O)N[C@@H](CC(C)C)C(=O)N[C@@H](CCCN=C(N)N)C(=O)O)[C@@H](C)O)C(C)C)C(C)C [LAREYKKIVEKLKRWLRQVLRTLR],MIC,[3],1.29 µM
same,MIC,[21],10.3 µM
same,MIC,Pseudomonas aeruginosa 1,2.58 µM
same,MIC,Pseudomonas aeruginosa 5,5.17 µM
same,MIC,[22],2.58 µM
same,MIC,[23],5.17 µM
same,MIC,[10],2.58 µM
CC(C)C[C@H](NC(=O)[C@H](CCCN=C(N)N)NC(=O)[C@H](CCCCN)NC(=O)[C@H](Cc1c[nH]c2ccccc12)NC(=O)[C@H](Cc1c[nH]c2ccccc12)NC(=O)[C@H](CCCCN)NC(=O)[C@H](Cc1c[nH]c2ccccc12)NC(=O)[C@@H](N)Cc1c[nH]c2ccccc12)C(=O)N[C@@H](CCCN=C(N)N)C(=O)N[C@@H](CCCN=C(N)N)C(=O)N[C@@H](CC(C)C)C(=O)N[C@@H](Cc1ccccc1)C(=O)N[C@@H](CC(C)C)C(=O)N[C@@H](CC(C)C)C(=O)N[C@H](C(=O)O)C(C)C [WWKWWKRLRRLFLLV],MIC,[24],7.32 µM
same,MIC,[25],7.32 µM
CC[C@H](C)[C@H](NC(=O)[C@H](C)NC(=O)[C@@H](NC(=O)[C@H](C)NC(=O)CNC(=O)[C@H](CCSC)NC(=O)[C@H](CCC(N)=O)NC(=O)[C@H](CC(C)C)NC(=O)[C@H](CO)NC(=O)[C@@H](N)Cc1ccc(O)cc1)[C@@H](C)O)C(=O)N[C@@H](CCCCN)C(=O)N[C@@H](CCC(N)=O)C(=O)N[C@H](C(=O)N[C@@H](CCCCN)C(=O)N[C@@H](CCCCN)C(=O)N[C@@H](CC(C)C)C(=O)N[C@@H](Cc1ccccc1)C(=O)N[C@@H](CCCCN)C(=O)N[C@@H](CCCCN)C(=O)N[C@@H](Cc1c[nH]c2ccccc12)C(=O)NCC(=O)N[C@@H](Cc1c[nH]c2ccccc12)C(=O)O)C(C)C [YSLQMGATAIKQVKKLFKKWGW],MIC,[26],0.25 µM
same,MIC,[27],0.5 µM
same,MIC,[28],1 µM
same,MIC,[29],6 µM
same,MIC,[30],0.25 µM
same,MIC,[31],0.05 µM
same,MIC,[32],6 µM
same,MIC,[33],6 µM
same,MIC,[34],0.1 µM
same,MIC,[35],6 µM
